Results on eight compounds are retold here after patent US20150297761A1, “PEPTIDIC STRUCTURES INCORPORATING AN AMINO ACID METAL COMPLEX AND APPLICATIONS IN MAGNETIC RESONANCE IMAGING” (THE GENERAL HOSPITAL CORPORATION, priority 2012, published 2015).

Series [1] in a line: Relaxivity in the absence and presence of HSA (Example 3). It counts as physicochemical. The following applies: for r1 (20 MHz), absence of HSA / r1 (60 MHz), absence of HSA: absence of HSA (first value of cell); for r1 (20 MHz), presence of HSA / r1 (60 MHz), presence of HSA: presence of HSA (second value of cell). Here is the method:
^1H and ^13C NMR spectra were recorded on a Varian 500 NMR system equipped with a 5 mm broadband probe. Longitudinal relaxation times, T1, were measured by using the inversion recovery method on Bruker Minispecs. mq20 (20 MHz) and mq60 (60 MHz). Purification via HPLC of intermediates toward Fmoc-DOTAla was performed using method A: Injection of crude mixture onto preparative HPLC on a Rainin, Dynamax (column: 250 mm Kromasil C18) by using A: 0.1% TFA in water, B: 0.1% TFA in MeCN, flow-rate 15 mL/min, 1 over 23 minutes. HPLC purity analysis (both UV and MS detection) was carried out on an Agilent 1100 system (column: Phenomenex Luna, C18(2) 100/2 mm) with UV detection at 220, 254 and 280 nm by using a method B: A gradient of A(0.1% formic acid in water) to 95% B(0.1% formic acid in MeCN), flow-rate 0.8 mL/min, 1 over 15 minutes.

The target of series [2] is HSA (Homo sapiens, UniProt P02768). As to the kind of experiment: HSA binding by ultrafiltration and ICP-MS (Example 3). It counts as in vitro ADME. Particulars: 0.1 mM compound, 4.5% (w/v) HSA, 37° C. The method, then:
In order to measure HSA binding of the complexes, a 0.1 mM solution (determined by ICP-MS) of the corresponding Gd complex in 4.5% w/v HSA was prepared and pipetted into a Ultrafree-MC Microcentrifuge Filter (NMWL 5,000 Da, PLCC, Millipore). The mixture is incubated at 37° C. for 10 minutes and subsequently centrifuged at 12,000 rpm for 15 minutes. Binding is determined by measurement of Gd content in the filtrate by ICP-MS.

A short description of series [3]: Ligand challenge, equilibrium constant Kcomp of MS-325 vs. L. It counts as physicochemical. The following applies: calculated from literature thermodynamic data. The method, then: (§1) Equilibration of each solution was monitored by LC-MS. Relative distributions of [Gd(CyPic3A)(H2O)2]^− and CyPic3A were determined by integrating the corresponding absorbance traces at 280 nm. […] Kcomp values determined between [Gd(DTPA)(H2O)]^2− and various ligands were determined from conditional formation constants (Kcond)^4 values taken from the literature.^6-16 Direct comparisons were only made between Kcond values determined under identical conditions.

A short description of series [4]: Ligand challenge, equilibrium constant Kcomp of [Gd(DTPA)(H2O)]2− vs. L. It counts as physicochemical. Particulars: calculated from literature thermodynamic data. Here is the method:
As a means of assessing thermodynamic stability relative to other Gd(III)-complexes, [Gd(CyPic3A)(H2O)2]^− was challenged with DTPA in pH 7.4 25 mM Tris buffer. […] From this information it was possible to deduce equilibrium constants (Kcomp) for the competition reaction described in Equation 5,^31 where L=DTPA and L′=challenging chelator.
as §1

A short description of series [5]: Kinetic inertness: Zn(II) transmetallation in phosphate buffer, followed by 1/T1. It counts as physicochemical. The text has this: Kinetic inertness was also taken into account in the evaluation of potential probes. In this regard, [Gd(CyPic3A)(H2O)2]^− was challenged with 1 equiv. [ZnPO4]^− as a slurry in pH 7.0 phosphate buffer at 310 K (see below). Several clinically utilized Gd(III) complexes have been benchmarked relative to one another in this manner.^37 As Gd(III) replaced by Zn(II) precipitates from the solution as GdPO4, the relaxation rate 1/T1 decreases. In this method, the time required to reach 80% of the initial 1/T1 value was utilized as an index of kinetic inertness.
Modified conditions of Muller and co-workers were used for this experiment.^11,12 Solutions containing 2.5 mM [Gd(CyPic3A)(H2O)2]^− and 2.5 mM Zn(OTf)2 were combined in pH 7.0 phosphate buffer (50 mM) and placed in an incubator shaker set to 310 K. Progress of the transchelation was monitored via the decrease in 1/T1 with time. Prior to measurement, aliquots were placed in small glass inserts and centrifuged to bring all insoluble material to the bottom so as not to interfere with the measurement.

The nature of series [6]: Relaxivity of Gd(DOTAla) metallopeptides and reference agents (T1 inversion recovery, 37° C.). It counts as physicochemical. Here is the method: Main numbers are given per Gd, numbers in parentheses are per molecule values. All numbers were determined at 37° C. using an inversion recovery sequence at concentrations ranging from 0.05 to 0.6 mM/Gd. Table 4 in Example 2 further expands the data of Table 1.
Per Gd relaxivities were determined by measuring T1 at 37° C. using 20, 60, 200, 400 and 500 MHz spectrometers. Relaxivities for MS-325 (with and without the presence of HSA) as a reference compound with a long τR and [Gd(HP-DO3A)(H2O)] as a reference for very short τR were also measured, and all the relaxivity data is tabulated in Table 4, together with results obtained from literature for the compounds with similar estimated τR. […] Additional rigidity through cyclization seems to provide only minor relaxivity increase for the dimeric and trimeric systems (Gd2C2 and Gd3C3).
Measurement of relaxivity. Longitudinal relaxation times T1, were measured on Bruker Minispecs mq20 (0.47 T) and mq60 (1.41 T), a Bruker Bioscan horizontal bore 4.7 T, 9.4 T and 11.7 T Varian NMR spectrometers. T1 was measured by using an inversion recovery method with 10 inversion time values ranging from 0.05×T1 to 5×T1. Relaxivity was calculated from a linear plot of 3 or 4 different concentrations (ranging from 0.01 to 0.5 mM, depending on amount of compound isolated) versus the corresponding inverse relaxation times. All samples were measured at 37° C. using either the internal temperature control of the instrument (0.47, 1.41, 9.4 and 11.7 T) or a warm air blower (4.7 T). MS-325/HSA was prepared in a 4.5% w/v solution of HSA (0.66 mM) in PBS. The MS-325 concentration (in presence of HSA) ranged from 0.05 to 0.15 mM.

For series [7] the following is noted: hydration state; literature (superscript refs); cited from earlier work.
For series [8] the following is noted: 310 K, cited from earlier work; for r1 0.47 T 310K: literature (superscript refs); for r1 1.41 T 310K: cell says 1.5 T, literature (ref 17).
For series [9] the following is noted: cited from earlier work.

Sequence of HSA (P02768 25-609): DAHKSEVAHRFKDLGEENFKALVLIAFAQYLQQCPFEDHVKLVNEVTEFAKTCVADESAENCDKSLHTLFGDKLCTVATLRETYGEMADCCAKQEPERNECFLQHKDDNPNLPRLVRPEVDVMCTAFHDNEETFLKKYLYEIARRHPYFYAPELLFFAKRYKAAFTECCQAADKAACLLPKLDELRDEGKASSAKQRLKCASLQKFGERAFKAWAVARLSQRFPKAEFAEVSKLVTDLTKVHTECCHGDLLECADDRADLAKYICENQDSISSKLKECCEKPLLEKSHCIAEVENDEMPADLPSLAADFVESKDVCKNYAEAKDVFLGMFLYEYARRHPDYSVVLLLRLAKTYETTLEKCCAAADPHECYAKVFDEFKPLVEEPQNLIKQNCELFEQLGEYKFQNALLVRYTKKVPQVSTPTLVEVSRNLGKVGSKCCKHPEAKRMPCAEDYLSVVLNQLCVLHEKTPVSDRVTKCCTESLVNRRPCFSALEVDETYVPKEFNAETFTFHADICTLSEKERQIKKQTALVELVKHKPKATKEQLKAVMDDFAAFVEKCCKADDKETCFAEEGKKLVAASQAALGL

For “2,2′,2″-(10-(3-(((1-Carboxy-2-(4-hydroxy-3,5-diiodophenyl)ethyl)-amino)-2-(2-(4-isobutylphenyl)propanamido)-3-oxopropyl)-1,4,7,10-tetraazacyclododecane-1,4,7-triyl)triacetic Acid [Gd (8)]”, in series [1], the “r1 (20 MHz), absence of HSA” value was 7.1 mM⁻¹ s⁻¹; the “r1 (20 MHz), presence of HSA” value was found to be 31.8 mM⁻¹ s⁻¹; the “r1 (60 MHz), absence of HSA” value was determined as 6.7 mM⁻¹ s⁻¹; the “r1 (60 MHz), presence of HSA” value was determined as 21.1 mM⁻¹ s⁻¹. For the same compound, the “% HSA binding” value in series [2] was found to be 90%.
`O=C(O)CN(CCN(CC(=O)O)CC(=O)O)CCN(CC(=O)O)CC(=O)O` [DTPA]: the “Kcomp MS-325 vs. L pH 4” value in series [3] (pH 4) is given as 0.58^5. Also, the “Kcomp MS-325 vs. L pH 7.4” value in [3] (pH 7.4) is listed as 0.35^5. Further, in series [4] (pH 4), the “Kcomp [Gd(DTPA)(H2O)]^2- vs. L pH 4” value is 1. In [4] (pH 7.4), the “Kcomp, [Gd(DTPA)(H2O)]^2- vs. L pH 7.4” value was 1. Further, the “Time to 80% r1” value in [5] (Zn(II) challenge of the Gd(III) complex of L, this work) is 383 min.
As to `COC(=O)CNC(=O)C(CN1CCN(CC(=O)O)CCN(CC(=O)O)CCN(CC(=O)O)CC1)NC(=O)C(N)Cc1cc(I)c(O)c(I)c1` (stereo not shown) [Gd (7), 2,2′,2″-(10-(2-(2-amino-3-(4-hydroxy-3,5-diiodophenyl)propanamido)-3-((2-methoxy-2-oxoethyl)amino)-3-oxopropyl)-1,4,7,10-tetraazacyclododecane-1,4,7-triyl)triacetic acid], in series [1], the “r1 (20 MHz), absence of HSA” value is 4.7 mM⁻¹ s⁻¹; the “r1 (20 MHz), presence of HSA” value came to 7.05 mM⁻¹ s⁻¹; the “r1 (60 MHz), absence of HSA” value was 3.9 mM⁻¹ s⁻¹; the “r1 (60 MHz), presence of HSA” value was 6.9 mM⁻¹ s⁻¹. For the same compound, the “% HSA binding” value in [2] is listed as 6%.
The matching figures for `C[C@@H](NC(=O)C(CN1CCN(CC(=O)O)CCN(CC(=O)O)CCN(CC(=O)O)CC1)NC(=O)C(N)Cc1cc(I)c(O)c(I)c1)c1ccccc1` (stereo partly drawn) [Gd (13-R), 2,2′,2″-(10-(2-(2-amino-3-(4-hydroxy-3,5-diiodophenyl)propanamido)-3-oxo-3-(((R)-1-phenylethyl)amino)propyl)-1,4,7,10-tetraazacyclododecane-1,4,7-triyl)triacetic acid]: 6.6 mM⁻¹ s⁻¹, 18.4 mM⁻¹ s⁻¹, 6.4 mM⁻¹ s⁻¹, 11.4 mM⁻¹ s⁻¹ and 36%.
The matching figures for `C[C@@H](NC(=O)C(CN1CCN(CC(=O)O)CCN(CC(=O)O)CCN(CC(=O)O)CC1)NC(=O)C(N)Cc1cc(I)c(O)c(I)c1)c1ccccc1` (stereo partly drawn) [Gd (13-S), 2,2′,2″-(10-(2-(2-amino-3-(4-hydroxy-3,5-diiodophenyl)propanamido)-3-oxo-3-(((R)-1-phenylethyl)amino)propyl)-1,4,7,10-tetraazacyclododecane-1,4,7-triyl)triacetic acid]: 7.1 mM⁻¹ s⁻¹, 18.5 mM⁻¹ s⁻¹, 6.1 mM⁻¹ s⁻¹, 10.9 mM⁻¹ s⁻¹ and 39%.
Consider `C[C@@H](C(=O)NC(CN1CCN(CC(=O)O)CCN(CC(=O)O)CCN(CC(=O)O)CC1)C(=O)N[C@@H](Cc1cc(I)c(O)c(I)c1)C(=O)O)c1ccccc1` (stereo partly drawn) [Gd (19), 2,2′,2″-(10-(3-(((S)-1-carboxy-2-(4-hydroxy-3,5-diiodophenyl)ethyl)amino)-3-oxo-2-((R)-2-phenylpropanamido)propyl)-1,4,7,10-tetraazacyclododecane-1,4,7-triyl)triacetic acid], for which, in series [1], the “r1 (20 MHz), absence of HSA” value amounted to 6.0 mM⁻¹ s⁻¹; the “r1 (20 MHz), presence of HSA” value amounted to 30.7 mM⁻¹ s⁻¹; the “r1 (60 MHz), absence of HSA” value came out at 6.4 mM⁻¹ s⁻¹; the “r1 (60 MHz), presence of HSA” value was found to be 21.8 mM⁻¹ s⁻¹. Also, the “% HSA binding” value in series [2] turned out to be 69%.
For `O=C([O-])CN(CCN(CC(=O)[O-])C[C@H](COP(=O)([O-])OC1CCC(c2ccccc2)(c2ccccc2)CC1)N(CC(=O)[O-])CC(=O)[O-])CC(=O)[O-].[Gd+3].[H+].[H+].[H+]` [MS-325, gadofosveset], the “Relaxivity per Gd, 200 MHz” value in [6] (200 MHz) came out at 5.7 mM⁻¹ s⁻¹. The “Relaxivity per Gd, 200 MHz, with HSA” value in [6] (200 MHz, presence of 4.5% HSA) is 5.0 mM⁻¹ s⁻¹. For the same compound, the “Relaxivity per Gd, 400 MHz” value in [6] (400 MHz (9.4 T)) turned out to be 4.8 mM⁻¹ s⁻¹. Also, the “Relaxivity per Gd, 400 MHz, with HSA” value in series [6] (400 MHz, presence of 4.5% HSA) stood at 4.1 mM⁻¹ s⁻¹. Besides, the “Relaxivity per Gd, 500 MHz” value in [6] (500 MHz) was 4.7 mM⁻¹ s⁻¹. Moreover, the “Relaxivity per Gd, 500 MHz, with HSA” value in series [6] (500 MHz, presence of 4.5% HSA) was determined as 3.7 mM⁻¹ s⁻¹. Further, the q in series [7] is given as 1^18. Further, in [8], the “r1 0.47 T 310K” value is recorded as 5.8^17 mM^−1s^−1 and the “r1 1.41 T 310K” value is 5.2 (1.5 T)^17 mM^−1s^−1. The “Relaxivity per Gd, 20 MHz” value in series [9] (20 MHz, 37° C., literature data (footnotes a, b, d)) was 6.8^d mM^−1 s^−1. Further, the “Relaxivity per Gd, 20 MHz, with HSA” value in series [9] (20 MHz, 37° C., presence of 4.5% HSA, from ref 22) is 42^d mM^−1 s^−1. Further, the “Relaxivity per Gd, 60 MHz” value in series [9] (60 MHz, 37° C., literature data (footnotes a, b, d)) is 5.4^d mM^−1 s^−1. For the same compound, in [9] (60 MHz, 37° C., presence of 4.5% HSA, from ref 22), the “Relaxivity per Gd, 60 MHz, with HSA” value was 23.8^d mM^−1 s^−1. Also, in series [9] (HSA-associated), the peak molecular relaxivity result is on record as “above 40 mM^−1s^−1”. In series [9] (at low fields), the “increase in relaxivity once associated with human serum albumin (HSA)” value is on record as “over 8 fold”.
In the case of `CNC(=O)CN(CCN(CCN(CC(=O)[O-])CC(=O)NC)CC(=O)[O-])CC(=O)[O-].[Gd+3]` [[Gd(DTPA-BMA)(H2O)]], the q in [7] is on record as 1^16. In series [8], the “r1 0.47 T 310K” value is 3.5^17 mM^−1s^−1 and the “r1 1.41 T 310K” value is 3.3 (1.5 T)^17 mM^−1s^−1. In addition, the “time to 80% of the initial 1/T1” value in series [5] (1 equiv. Zn(II), pH 7.0 phosphate buffer, 310 K) is given as 124 min.
